Assay type in all cases: functional
Experiment [1] concerns Felis catus. Description: In vivo antagonist activity at beta-1 adrenergic receptor in cat assessed as inhibition of isoproterenol-induced tachycardia administered as infusion for 30 mins by cardiotachometric analysis. The note with it: 0.5 h.
Experiment [2] deals with Felis catus. Description: In vivo antagonist activity at beta-2 adrenergic receptor in cat assessed as inhibition of vasodepressor response administered as infusion for 30 mins relative to control.
Another experiment concerns Rattus norvegicus. Kind of experiment: Partial agonist activity at beta adrenergic receptor in catecholamine-depleted rat assessed as change in heart rate at 2.5 mg/kg, iv.

Molecules are shown by their SMILES.

As a reminder, the ED50 is the midpoint of the dose-response relation. As for `CNC(=O)NCc1ccc(OCC(O)CNC(C)C)c(OC)c1` (stereo unspecified), the 50% effective dose (ED50) in the experiment on Felis catus [1] was 0.794 mg/kg. For the same molecule, the “inhibition (INH)” value in the experiment with Felis catus [2] was determined as 87%.
The corresponding values for `CCCC(=O)NCc1ccc(OCC(O)CNC(C)C)cc1` (stereo unspecified) are 1.4 mg/kg and 51%.
Consider `CC(C)NCC(O)COc1ccccc1CNC(=O)c1ccc(Cl)cc1` (stereo unspecified), for which the Activity with Rattus norvegicus was 14 bpm. Moreover, in the experiment with Felis catus [1], the ED50 came to 0.304 mg/kg. Further, in the experiment on Felis catus [2], the “inhibition (INH)” value came to 45%.
The like results for `CC(=O)NCc1ccc(OCC(O)CNC(C)(C)C)c(Cl)c1` (stereo unspecified) were, in that order, -30 bpm, 0.021 mg/kg and 30%.
The like results for `COc1cc(CNC(C)=O)ccc1OCC(O)CNC(C)C` (stereo unspecified) were, in that order, -9 bpm, 0.312 mg/kg and 5%.
The like results for `CC(C)NCC(O)COc1ccc(CNC(=O)C(C)C)cc1Br` (stereo unspecified) were, in that order, -16 bpm, 1.1 mg/kg and 43%.
On to `CC(=O)NCc1ccc(OCC(O)CNC(C)(C)C)cc1` (stereo unspecified), for which, in the experiment on Rattus norvegicus, the Activity is -7 bpm. Moreover, in the experiment with Felis catus [1], the ED50 was found to be 0.21 mg/kg. Also, in the experiment with Felis catus [2], the “inhibition (INH)” value is reported as 32%.
Turning to `CCNC(=O)NCCc1ccc(OCC(O)CNC(C)C)cc1` (stereo unspecified), the 50% effective dose (ED50) in the experiment on Felis catus [1] is 1.75 mg/kg. For the same molecule, the “inhibition (INH)” value in the experiment with Felis catus [2] stood at 51%.
As for `CCCc1cc(CNC(C)=O)ccc1OCC(O)CNC(C)C` (stereo unspecified), the Activity with Rattus norvegicus is listed as -17 bpm. Moreover, in the experiment on Felis catus [1], the 50% effective dose (ED50) was found to be 0.04 mg/kg. Moreover, the “inhibition (INH)” value in the experiment with Felis catus [2] was determined as 51%.
On to `CCOc1cc(CNC(=O)CC)ccc1OCC(O)CNC(C)(C)C` (stereo unspecified), for which, in the experiment on Felis catus [1], the ED50 came out at 1.41 mg/kg. The “inhibition (INH)” value in the experiment with Felis catus [2] came to 68%.
`CCCNC(=O)NCCc1ccc(OCC(O)CNC(C)C)cc1` (stereo unspecified): in the experiment with Felis catus [1], the median effective dose (ED50) is 0.065 mg/kg. The “inhibition (INH)” value in the experiment on Felis catus [2] came out at 19%.
Consider `CCC(=O)NCc1ccc(OCC(O)CNC(C)C)c(Br)c1` (stereo unspecified), for which the Activity with Rattus norvegicus is on record as -15 bpm. In addition, in the experiment with Felis catus [1], the 50% effective dose (ED50) came out at 0.269 mg/kg. The “inhibition (INH)” value in the experiment with Felis catus [2] was found to be 7%.
Regarding `CC(C)NCC(O)COc1ccc(CNC(N)=O)cc1` (stereo unspecified), the ED50 in the experiment on Felis catus [1] was 0.117 mg/kg. In the experiment on Felis catus [2], the “inhibition (INH)” value stood at 48%.
`COc1cc(CNC(N)=O)ccc1OCC(O)CNC(C)(C)C` (stereo unspecified): the 50% effective dose (ED50) in the experiment on Felis catus [1] came out at 0.075 mg/kg. The “inhibition (INH)” value in the experiment on Felis catus [2] is 68%.
With `CCCCCCC(=O)NCc1ccc(OCC(O)CNC(C)(C)C)c(Cl)c1` (stereo unspecified), the median effective dose (ED50) in the experiment on Felis catus [1] stood at 1.42 mg/kg. The “inhibition (INH)” value in the experiment on Felis catus [2] was found to be 40%.
The corresponding values for `CCCCNC(=O)NCCc1ccc(OCC(O)CNC(C)C)cc1` (stereo unspecified) are 0.515 mg/kg and 0%.
With `CCC(=O)NCc1ccc(OCC(O)CNC(C)C)cc1` (stereo unspecified), the Activity in the experiment with Rattus norvegicus was -6 bpm. For the same molecule, in the experiment with Felis catus [1], the 50% effective dose (ED50) came to 0.658 mg/kg. The “inhibition (INH)” value in the experiment with Felis catus [2] stood at 16%.
The corresponding values for `CCC(=O)NCc1ccc(OCC(O)CNC(C)(C)C)c(OC)c1` (stereo unspecified) are -12 bpm, 1.09 mg/kg and 72%.
As to `CNC(=O)NCCc1ccc(OCC(O)CNC(C)C)cc1` (stereo unspecified), the ED50 in the experiment on Felis catus [1] turned out to be 0.193 mg/kg.
For the molecule `CNC(=O)NCCc1ccc(OCC(O)CNC(C)C)c(Br)c1` (stereo unspecified), the ED50 with Felis catus [1] came to 0.88 mg/kg. Also, the “inhibition (INH)” value with Felis catus [2] is given as 97%.
As to `CCC(=O)NCc1ccccc1OCC(O)CNC(C)C` (stereo unspecified), the Activity in the experiment with Rattus norvegicus came out at 44 bpm. Further, the ED50 in the experiment with Felis catus [1] was 0.27 mg/kg. The “inhibition (INH)” value in the experiment with Felis catus [2] stood at 0%.
For the molecule `C=CCc1cc(CNC(=O)CC)ccc1OCC(O)CNC(C)C` (stereo unspecified), the Activity with Rattus norvegicus is recorded as -10 bpm. Further, the ED50 in the experiment with Felis catus [1] turned out to be 0.098 mg/kg. In the experiment on Felis catus [2], the “inhibition (INH)” value came out at 3%.
With `CCCCCCC(=O)NCc1ccccc1OCC(O)CNC(C)C` (stereo unspecified), the ED50 in the experiment with Felis catus [1] is 1.16 mg/kg. Further, the “inhibition (INH)” value in the experiment on Felis catus [2] came out at 19%.
Turning to `CC(C)NCC(O)COc1ccc(CNC(N)=O)cc1Br` (stereo unspecified), the ED50 in the experiment with Felis catus [1] was determined as 0.106 mg/kg. In the experiment on Felis catus [2], the “inhibition (INH)” value came out at 25%.
Regarding `CC(=O)NCc1ccc(OCC(O)CNC(C)C)cc1` (stereo unspecified), the Activity in the experiment with Rattus norvegicus was found to be 2 bpm. Moreover, the median effective dose (ED50) in the experiment with Felis catus [1] worked out at 0.142 mg/kg. Besides, the “inhibition (INH)” value in the experiment on Felis catus [2] came to 0%.
The corresponding values for `CCCC(=O)NCc1ccc(OCC(O)CNC(C)(C)C)c(OC)c1` (stereo unspecified) are -10 bpm, 0.282 mg/kg and 17%.
The like results for `CC(=O)NCc1ccccc1OCC(O)CNC(C)(C)C` (stereo unspecified) were, in that order, 41 bpm, 0.13 mg/kg and 63%.
The like results for `CCCc1cc(CNC(=O)CC)ccc1OCC(O)CNC(C)C` (stereo unspecified) were, in that order, 4 bpm, 0.163 mg/kg and 34%.
With `COc1cc(CNC(=O)C(C)C)ccc1OCC(O)CNC(C)C` (stereo unspecified), the Activity in the experiment on Rattus norvegicus was -16 bpm. The 50% effective dose (ED50) in the experiment on Felis catus [1] was found to be 1.14 mg/kg. Moreover, the “inhibition (INH)” value in the experiment with Felis catus [2] amounted to 3%.
For the molecule `CCC(=O)NCc1ccc(OCC(O)CNC(C)C)c(OC)c1` (stereo unspecified), the Activity in the experiment with Rattus norvegicus is -19 bpm. For the same molecule, in the experiment on Felis catus [1], the median effective dose (ED50) came out at 0.449 mg/kg. The “inhibition (INH)” value in the experiment with Felis catus [2] was 37%.
The corresponding values for `CC(=O)NCc1ccc(OCC(O)CNC(C)C)c(Br)c1` (stereo unspecified) are -17 bpm, 0.083 mg/kg and 5%.
The corresponding values for `CCC(=O)NCc1ccc(OCC(O)CNC(C)C)c(Cl)c1` (stereo unspecified) are -15 bpm, 0.63 mg/kg and 83%.
Consider `CNC(=O)NCc1ccc(OCC(O)CNC(C)C)c(Br)c1` (stereo unspecified), for which the ED50 in the experiment on Felis catus [1] was 0.572 mg/kg. The “inhibition (INH)” value in the experiment with Felis catus [2] worked out at 0%.
With `COc1cc(CNC(C)=O)ccc1OCC(O)CNC(C)(C)C` (stereo unspecified), in the experiment on Rattus norvegicus, the Activity is -16 bpm. In the experiment on Felis catus [1], the ED50 was 0.045 mg/kg. Also, the “inhibition (INH)” value in the experiment on Felis catus [2] was 70%.
Consider `CNC(=O)NCc1ccc(OCC(O)CNC(C)C)c(Cl)c1` (stereo unspecified), for which the 50% effective dose (ED50) in the experiment with Felis catus [1] turned out to be 0.381 mg/kg. Also, the “inhibition (INH)” value in the experiment with Felis catus [2] stood at 21%.
For `CC(=O)NCc1cccc(OCC(O)CNC(C)C)c1` (stereo unspecified), the 50% effective dose (ED50) in the experiment on Felis catus [1] was 0.383 mg/kg. In the experiment on Felis catus [2], the “inhibition (INH)” value turned out to be 83%.
The like results for `COc1ccc(CCNCC(O)COc2ccc(CNC(C)=O)cc2Cl)c(OC)c1` (stereo unspecified) were, in that order, 1.5 mg/kg and 17%.
Take `C=CCc1cc(CNC(C)=O)ccc1OCC(O)CNC(C)C` (stereo unspecified): the Activity in the experiment on Rattus norvegicus was -16 bpm. For the same molecule, the ED50 with Felis catus [1] came out at 0.035 mg/kg. Also, the “inhibition (INH)” value in the experiment on Felis catus [2] is recorded as 61%.
On to `CCCNC(=O)NCCc1ccc(OCC(O)CNC(C)C)c(OC)c1` (stereo unspecified), for which the 50% effective dose (ED50) in the experiment on Felis catus [1] amounted to 0.867 mg/kg. Also, the “inhibition (INH)” value with Felis catus [2] is given as 6%.
The like results for `CCNC(=O)NCc1ccc(OCC(O)CNC(C)C)c(Cl)c1` (stereo unspecified) were, in that order, 1.76 mg/kg and 63%.
The corresponding values for `CC(C)NCC(O)COc1ccc(CCNC(N)=O)cc1` (stereo unspecified) are 0.101 mg/kg and 47%.
The like results for `COc1cc(CNC(N)=O)ccc1OCC(O)CNC(C)C` (stereo unspecified) were, in that order, 0.072 mg/kg and 0%.
With `CCC(=O)NCc1ccc(OCC(O)CNC(C)(C)C)c(Br)c1` (stereo unspecified), the Activity in the experiment on Rattus norvegicus is on record as 0 bpm. For the same molecule, the ED50 in the experiment on Felis catus [1] worked out at 0.1 mg/kg. Also, the “inhibition (INH)” value in the experiment on Felis catus [2] was 21%.
The corresponding values for `CCOc1cc(CNC(=O)CC)ccc1OCC(O)CNC(C)C` (stereo unspecified) are -10 bpm, 0.331 mg/kg and 48%.
Consider `CC(=O)NCc1cc(C)ccc1OCC(O)CNC(C)C` (stereo unspecified), for which, in the experiment with Rattus norvegicus, the Activity is on record as 5 bpm. In the experiment with Felis catus [1], the ED50 was 0.381 mg/kg. For the same molecule, the “inhibition (INH)” value in the experiment with Felis catus [2] is recorded as 80%.
Regarding `CCCNC(=O)NCCc1ccc(OCC(O)CNC(C)(C)C)cc1` (stereo unspecified), the ED50 in the experiment with Felis catus [1] was determined as 0.266 mg/kg. In addition, in the experiment on Felis catus [2], the “inhibition (INH)” value is on record as 27%.
For `CC(=O)Nc1ccc(OCC(O)CNC(C)C)cc1` (stereo unspecified) [PRACTOLOL], the “inhibition (INH)” value in the experiment on Felis catus [2] amounted to 8%.

The values above are taken from ChEMBL document CHEMBL3272231, “beta-Adrenergic blocking agents. 16. 1-(Acylaminomethyl-, ureidomethyl-, and ureidoethylphenoxy)-3-amino-2-propanols” (1977).
